Laboratory results reported in ChEMBL document CHEMBL1139648, “Designing rapid onset selective serotonin re-uptake inhibitors. Part 1: Structure-activity relationships of substituted (1S,4S)-4-(3,4-dichlorophenyl)-N-methyl-1,2,3,4-tetrahydro-1-naphthaleneamine” (Bioorg Med Chem Lett, 2006).

Tests used:
[1] = target: Sodium-dependent noradrenaline transporter (Homo sapiens, UniProt P23975); assay: Inhibition of noradrenaline re-uptake at human noradrenaline transporter expressed in HEK293 cells; type: cell-based
[2] = Distribution coefficient of the compound, log D; type: physicochemical; conditions: octanol/water
[3] = Dissociation constant, pKa of the compound; type: physicochemical
[4] = Half life in human liver microsome; type: ADME; conditions: liver microsomes
[5] = Half life in rat liver microsome; type: ADME; conditions: liver microsomes
[6] = Blood clearance in rat in CNS penetration assay at 3 mg/kg, iv or 5 mg/kg, po; type: ADME, organism-based; conditions: whole blood
[7] = Volume of distribution in rat at 3 mg/kg, iv or 5 mg/kg, po; type: ADME, organism-based; conditions: in vivo, read-out: Vdss
Rattus norvegicus [8] = assay: Unbound volume of distribution in rat at 3 mg/kg, iv or 5 mg/kg, po; type: ADME, organism-based; conditions: in vivo
[9] = Half life in rat at 3 mg/kg, iv or 5 mg/kg, po; type: ADME, organism-based; conditions: in vivo
[10] = Oral bioavailability in rat at 5 mg/kg, po; type: ADME, organism-based; conditions: in vivo
[11] = Tmax in rat at 3 mg/kg, iv or 5 mg/kg, po; type: ADME, organism-based; conditions: in vivo
Rattus norvegicus [12] = assay: Unbound volume of distribution in rat at 1 mg/kg, iv or 1 mg/kg, po; type: ADME, organism-based; conditions: in vivo
[13] = Volume of distribution in rat at 1 mg/kg, iv or 1 mg/kg, po; type: ADME, organism-based; conditions: in vivo, read-out: Vdss
[14] = Half life in rat at 1 mg/kg, iv or 1 mg/kg, po; type: ADME, organism-based; conditions: in vivo
[15] = Oral bioavailability in rat at 1 mg/kg, po; type: ADME, organism-based; conditions: in vivo
[16] = Tmax in rat at 1 mg/kg, iv or 1 mg/kg, po; type: ADME, organism-based; conditions: in vivo

Chain of Sodium-dependent noradrenaline transporter (P23975 whole entry): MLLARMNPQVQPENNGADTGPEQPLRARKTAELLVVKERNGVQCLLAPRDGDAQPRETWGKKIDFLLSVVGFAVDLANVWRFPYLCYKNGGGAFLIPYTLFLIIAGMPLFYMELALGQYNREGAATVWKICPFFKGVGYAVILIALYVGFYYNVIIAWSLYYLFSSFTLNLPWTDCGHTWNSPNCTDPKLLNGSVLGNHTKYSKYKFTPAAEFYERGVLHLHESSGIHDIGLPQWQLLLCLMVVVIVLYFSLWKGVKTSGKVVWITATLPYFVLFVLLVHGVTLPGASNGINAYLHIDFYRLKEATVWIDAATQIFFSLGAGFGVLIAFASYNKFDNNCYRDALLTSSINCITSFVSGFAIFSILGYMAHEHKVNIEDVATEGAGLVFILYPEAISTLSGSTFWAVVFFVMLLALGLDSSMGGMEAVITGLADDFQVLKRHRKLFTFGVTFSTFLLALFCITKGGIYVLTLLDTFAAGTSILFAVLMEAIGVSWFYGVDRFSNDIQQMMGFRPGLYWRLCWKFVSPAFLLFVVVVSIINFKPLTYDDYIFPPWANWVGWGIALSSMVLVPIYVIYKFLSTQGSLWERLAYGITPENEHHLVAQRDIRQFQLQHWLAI

SMILES | IC50 [1] | other results
CN[C@H]1CC[C@@H](c2ccc(Cl)c(Cl)c2)c2ccc(C[S+](C)[O-])cc21 (some centres not stated) | 0.45 µM | –
CN[C@H]1CC[C@@H](c2ccc(Cl)c(Cl)c2)c2cc(C(N)=O)c(NS(C)(=O)=O)cc21 | 2.1 µM | –
CN[C@H]1CC[C@@H](c2ccc(Cl)c(Cl)c2)c2cc(C(=O)O)ccc21 | 20.3 µM | –
CN[C@H]1CC[C@@H](c2ccc(Cl)c(Cl)c2)c2ccc(S(=O)(=O)N(C)C)cc21 | 2.7 µM | –
CN[C@@H]1CC[C@H](c2ccc(Cl)c(Cl)c2)c2ccc(S(N)(=O)=O)cc21 | 0.31 µM | –
CN[C@H]1CC[C@@H](c2ccc(Cl)c(Cl)c2)c2cc(S(C)(=O)=O)ccc21 | 4.2 µM | –
CN[C@H]1CC[C@@H](c2ccc(Cl)c(Cl)c2)c2ccc(CC(N)=O)cc21 | 0.92 µM | –
CN[C@H]1CC[C@@H](c2ccc(Cl)c(Cl)c2)c2ccc(C#N)cc21 | 3.2 µM | –
CN[C@H]1CC[C@@H](c2ccc(Cl)c(Cl)c2)c2ccc(S(=O)(=O)NC)cc21 | 1.25 µM | logD [2]: 2.8
CN[C@H]1CC[C@@H](c2ccc(Cl)c(Cl)c2)c2cccc(C(=O)O)c21 | 0.88 µM | –
CN[C@H]1CC[C@@H](c2ccc(Cl)c(Cl)c2)c2cc(S(N)(=O)=O)ccc21 | 2.1 µM | –
CN[C@@H]1CC[C@@H](c2ccc(Cl)c(Cl)c2)c2ccc(S(N)(=O)=O)cc21 | 0.31 µM | –
CN[C@H]1CC[C@@H](c2ccc(Cl)c(Cl)c2)c2cc(C(=O)N(C)C)ccc21 | 11.5 µM | –
CN[C@H]1CC[C@@H](c2ccc(Cl)c(Cl)c2)c2cccc(C(N)=O)c21 | 1.15 µM | –
CN[C@H]1CC[C@@H](c2ccc(Cl)c(Cl)c2)c2ccc(S(C)(=O)=O)cc21 | 2.1 µM | –
CNC(=O)c1cccc2c1[C@@H](NC)CC[C@H]2c1ccc(Cl)c(Cl)c1 | 1.5 µM | –
CN[C@H]1CC[C@@H](c2ccc(Cl)c(Cl)c2)c2ccc(CNS(C)(=O)=O)cc21 | 0.96 µM | –
CNC(=O)c1ccc2c(c1)[C@H](c1ccc(Cl)c(Cl)c1)CC[C@@H]2NC | 5 µM | –

SMILES | IC50 [1] | other results
CN[C@H]1CC[C@@H](c2ccc(Cl)c(Cl)c2)c2ccc(CO)cc21 | 0.98 µM | –
CNC(=O)c1ccc2c(c1)[C@@H](NC)CC[C@H]2c1ccc(Cl)c(Cl)c1 | – | logD [2]: 2.8; pKa [3]: 8.8
CN[C@H]1CC[C@@H](c2ccc(Cl)c(Cl)c2)c2ccc(CC(=O)O)cc21 | 9.6 µM | –
CN[C@H]1CC[C@@H](c2ccc(Cl)c(Cl)c2)c2ccc(C(=O)OC)cc21 | 1.25 µM | –
CN[C@H]1CC[C@@H](c2ccc(Cl)c(Cl)c2)c2cc(C(=O)O)c(NS(C)(=O)=O)cc21 | 9.1 µM | –
CN[C@H]1CC[C@@H](c2ccc(Cl)c(Cl)c2)c2ccc(S(=O)(=O)NCCO)cc21 | 0.54 µM | –
CN[C@H]1CC[C@@H](c2ccc(Cl)c(Cl)c2)c2ccc(NS(C)(=O)=O)cc21 | 0.06 µM | –
CN[C@H]1CC[C@@H](c2ccc(Cl)c(Cl)c2)c2cc([S+](C)[O-])ccc21 (some centres not stated) | 1.8 µM | –
CN[C@H]1CC[C@H](c2ccc(Cl)c(Cl)c2)c2ccc(S(N)(=O)=O)cc21 | 0.011 µM | –
CN[C@H]1CC[C@@H](c2ccc(Cl)c(Cl)c2)c2ccc([S+](C)[O-])cc21 (some centres not stated) | 2 µM | –
CN[C@H]1CC[C@@H](c2ccc(Cl)c(Cl)c2)c2cc(C(N)=O)ccc21 | 1.1 µM | –
CN[C@H]1CC[C@@H](c2ccc(Cl)c(Cl)c2)c2ccc(-n3cncn3)cc21 | 0.76 µM | –
CN[C@H]1CC[C@@H](c2ccc(Cl)c(Cl)c2)c2ccc(S(N)(=O)=O)cc21 | 0.77 µM | logD [2]: 2.3; pKa [3]: 8.4; half-life [4]: > 2 h; half-life [5]: > 2 h; clearance [6]: 60 mL/min/kg; Vd [7]: 19 L/kg; Vdss (Rattus norvegicus [8]): 600 L/kg; half-life [9]: 4 h; bioavailability [10]: 44%; Tmax [11]: 1 h
CN[C@H]1CC[C@@H](c2ccc(Cl)c(Cl)c2)c2ccc([N+](=O)[O-])cc21 | 2.9 µM | –
CN[C@H]1CC[C@@H](c2ccc(Cl)c(Cl)c2)c2ccc(C(N)=O)cc21 | 0.41 µM | logD [2]: 2.3; pKa [3]: 8.5
CN[C@H]1CC[C@@H](c2ccc(Cl)c(Cl)c2)c2ccc(-n3ccnn3)cc21 | 0.65 µM | –
CN[C@H]1CC[C@@H](c2ccc(Cl)c(Cl)c2)c2ccccc21 [SERTRALINE] | – | Vdu (Rattus norvegicus [12]): 1900 L/kg; Log D [2]: 3.1; pKa [3]: 9.3; half-life [4]: > 2 h; half-life [5]: 0.383 h; Vd [13]: 52 L/kg; half-life [14]: 5 h; bioavailability [15]: 51%; Tmax [16]: 4 h
